Patent publication US6608086B2, “Dihydropyridines and new uses thereof” (Synaptic Pharmaceutical Corporation, priority 1993, dated 2003)
Structures can show the parent of a compound that is named as a salt. Where two headings read alike, the source gives them in different places.

Key:
α2C receptor = biological target: T1, α2C receptor (Homo sapiens, UniProt P18825); assay: Competition binding, [3H]rauwolscine, human α2C receptor
T1 construct: host or cells: LM(tk-) cells, line L-α2C
T1 sequence (P18825 1-462): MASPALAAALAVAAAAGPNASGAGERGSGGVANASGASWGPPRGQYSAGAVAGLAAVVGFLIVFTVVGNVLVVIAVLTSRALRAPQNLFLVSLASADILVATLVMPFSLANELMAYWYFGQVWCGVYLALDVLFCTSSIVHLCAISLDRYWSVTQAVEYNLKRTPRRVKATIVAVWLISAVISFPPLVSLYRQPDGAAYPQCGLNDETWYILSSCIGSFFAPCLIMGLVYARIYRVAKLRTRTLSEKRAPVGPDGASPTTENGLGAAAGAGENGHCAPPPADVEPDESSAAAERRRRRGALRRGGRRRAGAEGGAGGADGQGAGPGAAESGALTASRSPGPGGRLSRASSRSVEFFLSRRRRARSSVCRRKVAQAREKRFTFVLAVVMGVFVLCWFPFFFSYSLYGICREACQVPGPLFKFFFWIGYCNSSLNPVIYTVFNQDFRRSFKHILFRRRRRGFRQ
In short: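 Lysates of LM(tk−) cells stably expressing human α2A, α2B or α2C receptors in 25 mM glycylglycine pH 7.6. Equilibrium competition against 0.5 nM [3H]rauwolscine, with 10 μM phentolamine defining nonspecific binding. Bound ligand separated by GF/B filtration.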

[1] = biological target: T2, α1A Human Adrenergic Receptor (Homo sapiens, UniProt P25100); assay: Radioligand binding, [3H]prazosin, cloned human α1A adrenergic receptor
T2 construct: The entire coding region of α1A (1719 bp); expressed in transfected cells
T2 sequence (P25100 1-572): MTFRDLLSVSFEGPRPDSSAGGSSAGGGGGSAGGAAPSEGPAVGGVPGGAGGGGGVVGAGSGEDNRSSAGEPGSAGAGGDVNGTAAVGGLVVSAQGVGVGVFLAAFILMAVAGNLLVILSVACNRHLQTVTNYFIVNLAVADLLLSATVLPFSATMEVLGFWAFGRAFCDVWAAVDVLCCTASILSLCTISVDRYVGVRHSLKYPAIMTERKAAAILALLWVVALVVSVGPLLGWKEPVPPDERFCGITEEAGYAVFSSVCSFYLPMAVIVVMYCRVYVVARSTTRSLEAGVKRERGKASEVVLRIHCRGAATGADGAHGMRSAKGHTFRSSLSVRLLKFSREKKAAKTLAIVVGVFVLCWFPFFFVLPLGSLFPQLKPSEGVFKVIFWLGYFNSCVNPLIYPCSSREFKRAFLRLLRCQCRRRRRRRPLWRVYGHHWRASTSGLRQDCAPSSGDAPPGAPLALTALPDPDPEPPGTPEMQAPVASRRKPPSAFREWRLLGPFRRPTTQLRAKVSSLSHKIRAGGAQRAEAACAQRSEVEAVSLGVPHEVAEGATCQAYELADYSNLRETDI
In short: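 In pH 7.5 Tris/MgCl2/ascorbic acid buffer, α1A-expressing LM(tk−) membranes are exposed to 0.5 nM [3H]prazosin (37° C, 20 min). Excess phentolamine (10 μM) marks nonspecific binding before rapid filtration.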

L-type calcium channel = biological target: T3, L-type calcium channel (Rattus norvegicus, UniProt P22002); assay: Competition binding of [3H]nitrendipine to membrane fragments of rat cardiac muscle
T3 construct: membrane fragments of rat cardiac muscle; from tissue; host or cells: rat cardiac muscle membranes
T3 sequence (P22002 whole entry, other chains not shown, the tested form may be a part): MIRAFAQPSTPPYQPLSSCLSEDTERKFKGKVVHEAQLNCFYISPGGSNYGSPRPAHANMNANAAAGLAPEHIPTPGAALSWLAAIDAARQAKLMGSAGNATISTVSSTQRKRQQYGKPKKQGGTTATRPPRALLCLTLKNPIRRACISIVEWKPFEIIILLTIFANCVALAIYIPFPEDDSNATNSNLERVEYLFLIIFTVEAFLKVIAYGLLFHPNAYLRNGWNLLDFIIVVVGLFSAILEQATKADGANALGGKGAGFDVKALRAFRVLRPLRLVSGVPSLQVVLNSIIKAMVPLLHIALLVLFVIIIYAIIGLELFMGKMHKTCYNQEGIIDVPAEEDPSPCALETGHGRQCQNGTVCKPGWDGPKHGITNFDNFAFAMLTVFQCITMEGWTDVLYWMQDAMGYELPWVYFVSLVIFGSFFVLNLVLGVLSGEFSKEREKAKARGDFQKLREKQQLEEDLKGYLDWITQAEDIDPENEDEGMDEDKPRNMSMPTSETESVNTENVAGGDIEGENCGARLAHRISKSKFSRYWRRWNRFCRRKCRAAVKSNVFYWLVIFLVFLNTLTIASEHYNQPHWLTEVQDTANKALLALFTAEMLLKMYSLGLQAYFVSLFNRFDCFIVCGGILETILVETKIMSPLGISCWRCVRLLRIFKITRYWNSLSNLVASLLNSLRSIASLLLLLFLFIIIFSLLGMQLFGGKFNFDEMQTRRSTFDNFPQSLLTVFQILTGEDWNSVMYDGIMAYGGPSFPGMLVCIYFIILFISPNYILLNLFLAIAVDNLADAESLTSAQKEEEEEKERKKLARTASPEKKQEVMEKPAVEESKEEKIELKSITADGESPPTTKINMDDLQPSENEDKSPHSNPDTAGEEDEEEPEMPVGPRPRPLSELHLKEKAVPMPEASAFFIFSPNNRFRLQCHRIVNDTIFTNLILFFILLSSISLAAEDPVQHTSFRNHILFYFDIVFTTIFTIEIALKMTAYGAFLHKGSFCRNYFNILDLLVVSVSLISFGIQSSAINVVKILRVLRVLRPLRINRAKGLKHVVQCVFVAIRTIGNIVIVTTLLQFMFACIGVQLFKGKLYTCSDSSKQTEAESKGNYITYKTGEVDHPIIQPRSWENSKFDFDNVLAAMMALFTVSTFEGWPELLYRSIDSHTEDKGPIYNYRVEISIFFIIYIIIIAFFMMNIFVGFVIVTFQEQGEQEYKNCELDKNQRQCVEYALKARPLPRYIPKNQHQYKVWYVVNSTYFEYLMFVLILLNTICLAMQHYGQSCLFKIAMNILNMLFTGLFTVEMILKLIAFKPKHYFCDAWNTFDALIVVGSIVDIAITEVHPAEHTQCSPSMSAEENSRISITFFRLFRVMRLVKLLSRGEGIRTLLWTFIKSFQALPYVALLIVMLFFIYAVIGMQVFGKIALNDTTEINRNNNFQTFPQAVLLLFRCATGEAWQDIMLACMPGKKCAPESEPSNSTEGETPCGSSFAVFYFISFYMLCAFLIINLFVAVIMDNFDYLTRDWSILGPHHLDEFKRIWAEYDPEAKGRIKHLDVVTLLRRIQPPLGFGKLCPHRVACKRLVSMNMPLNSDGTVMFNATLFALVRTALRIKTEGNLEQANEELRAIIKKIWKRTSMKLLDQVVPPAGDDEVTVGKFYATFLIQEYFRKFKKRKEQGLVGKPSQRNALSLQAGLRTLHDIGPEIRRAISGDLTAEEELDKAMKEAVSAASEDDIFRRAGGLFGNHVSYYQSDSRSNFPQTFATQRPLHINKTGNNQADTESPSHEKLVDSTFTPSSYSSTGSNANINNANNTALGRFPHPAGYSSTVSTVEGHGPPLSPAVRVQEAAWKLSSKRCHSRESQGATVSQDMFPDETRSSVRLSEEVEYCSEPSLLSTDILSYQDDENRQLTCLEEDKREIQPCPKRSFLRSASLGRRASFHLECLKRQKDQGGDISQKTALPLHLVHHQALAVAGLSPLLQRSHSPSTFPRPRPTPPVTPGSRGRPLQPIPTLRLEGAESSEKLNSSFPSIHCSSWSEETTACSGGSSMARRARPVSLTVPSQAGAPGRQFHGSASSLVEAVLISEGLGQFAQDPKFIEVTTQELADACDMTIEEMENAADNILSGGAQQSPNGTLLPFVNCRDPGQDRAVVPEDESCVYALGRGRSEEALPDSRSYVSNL
T3 sequence (P54290 25-944 partner limits assumed, other chains not shown): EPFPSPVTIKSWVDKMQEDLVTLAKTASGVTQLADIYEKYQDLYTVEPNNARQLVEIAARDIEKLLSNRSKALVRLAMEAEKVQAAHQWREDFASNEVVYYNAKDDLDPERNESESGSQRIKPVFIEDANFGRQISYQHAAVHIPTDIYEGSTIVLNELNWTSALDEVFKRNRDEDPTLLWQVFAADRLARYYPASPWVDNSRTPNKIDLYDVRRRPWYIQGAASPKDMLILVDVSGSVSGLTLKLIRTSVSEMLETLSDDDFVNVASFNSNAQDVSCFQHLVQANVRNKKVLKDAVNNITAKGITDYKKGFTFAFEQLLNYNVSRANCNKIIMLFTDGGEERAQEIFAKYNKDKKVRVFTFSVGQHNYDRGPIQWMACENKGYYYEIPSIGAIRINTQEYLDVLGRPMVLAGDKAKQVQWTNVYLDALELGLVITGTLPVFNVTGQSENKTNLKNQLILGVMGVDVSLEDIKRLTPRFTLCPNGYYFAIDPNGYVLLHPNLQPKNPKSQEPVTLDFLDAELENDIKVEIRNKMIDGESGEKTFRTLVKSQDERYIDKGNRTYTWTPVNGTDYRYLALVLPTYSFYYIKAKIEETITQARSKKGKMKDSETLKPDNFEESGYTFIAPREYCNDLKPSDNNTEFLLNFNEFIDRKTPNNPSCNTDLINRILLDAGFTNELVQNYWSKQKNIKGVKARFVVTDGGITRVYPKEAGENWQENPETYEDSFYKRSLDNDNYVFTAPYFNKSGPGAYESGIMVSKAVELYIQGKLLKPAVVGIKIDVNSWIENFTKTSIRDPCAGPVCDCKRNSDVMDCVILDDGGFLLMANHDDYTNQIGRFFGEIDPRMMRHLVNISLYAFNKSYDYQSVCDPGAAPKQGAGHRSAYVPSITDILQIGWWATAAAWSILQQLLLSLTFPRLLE
T3 sequence (P54290 945-1091 partner limits assumed, other chains not shown): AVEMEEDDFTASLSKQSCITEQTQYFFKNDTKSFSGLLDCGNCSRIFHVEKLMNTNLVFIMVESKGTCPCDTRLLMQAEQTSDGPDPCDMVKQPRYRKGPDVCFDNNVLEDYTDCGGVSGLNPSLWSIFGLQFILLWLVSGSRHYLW

[2] = [3H]rauwolscine, LM(tk-) cell line L-α2C, SEM and n in lines below, read-out: pKi alpha-2 2c (converted)
[3] = pKi alpha-1 1a, [3H]prazosin, cloned human receptor in LM(tk-) cell membranes, SEM and n in lines below
[4] = [3H]nitrendipine, rat cardiac muscle membranes, SEM and n in lines below, read-out: pKi Ca (converted)
[5] = [3H]rauwolscine, human α2C receptor, LM(tk−) cells, read-out: pKi alpha-2 2c (converted)
[6] = pKi alpha-1 1a, [3H]prazosin, cloned human α1A receptor, LM(tk−) cell membranes
[7] = [3H]nitrendipine, rat cardiac muscle membrane fragments, L-type calcium channel, read-out: pKi Ca (converted)
[8] = pKi alpha-2 2c, [3H]rauwolscine, human α2C receptor, LM(tk−) cells

SMILES: CC1=C(C(N)=O)C(c2ccc([N+](=O)[O-])cc2)C(C(=O)NCCN2CCC(c3ccccc3)(c3ccccc3)CC2)=C(C)N1 (stereo not shown) [Example 54, 5-Carboxamide-1,4-dihydro-2,6-dimethyl-4-(4-nitrophenyl)-3-{N-[2-(4,4-diphenylpiperidin-1-yl)ethyl]}carboxamidopyridine hydrochloride hydrate]
- Ki (α2C receptor; [2]): 0.158 µM
- Ki [1, 3]: 0.347 µM
- Ki (L-type calcium channel; [4]): 58.9 µM

SMILES: COC(=O)C1=C(C)NC(C)=C(C(=O)NCCCN2CCC(c3ccccc3)(c3ccccc3)CC2)C1c1ccc(C(F)(F)F)cc1 (stereo not shown) [Example 1]
- Ki (α2C receptor; pKi alpha-2 2c): 0.17 µM
- Ki ([1]; pKi alpha-1 1a): 2.57 µM
- Ki (L-type calcium channel; pKi Ca): 6.61 µM

SMILES: CCC1=C(C(=O)NCCCN2CCC(c3ccccc3)(c3ccccc3)CC2)C(c2ccc([N+](=O)[O-])cc2)C(C(=O)OC)=C(C)N1 (stereo not shown) [Example 73, 2-Ethyl-1,4-dihydro-5-methoxycarbonyl-6-methyl-4-(4-nitro) phenyl-3-(N-(3-(4,4-diphenylpiperidin-1-yl)propyl))carboxamidopyridine]
- Ki (α2C receptor; pKi alpha-2 2c): 0.275 µM
- Ki ([1]; pKi alpha-1 1a): 0.204 µM
- Ki (L-type calcium channel; pKi Ca): 0.759 µM

SMILES: CCC1=C(C(N)=O)C(c2ccc([N+](=O)[O-])cc2)C(C(=O)NCCCN2CCC(C)(c3ccccc3)CC2)=C(CC)N1 (stereo not shown) [Example 106, 5-Carboxamido-2,6-diethyl-1,4-dihydro-3-{N-[3-(4-Methyl-4-phenylpiperidin-1-yl)propyl]}carboxamido-4-(4-nitrophenyl)pyridine hydrochloride hydrate]
- Ki (α2C receptor; [5]): 0.295 µM
- Ki [1, 6]: 2.4 µM
- Ki (L-type calcium channel; [7]): 1000 µM

SMILES: CCC1=C(C(=O)NCCCN2CCC(c3ccccc3)(c3ccccc3)CC2)C(c2ccc([N+](=O)[O-])cc2)C(C(N)=O)=C(C)N1 (stereo not shown) [Example 81, 5-carboxamido-2-ethyl-1,4-dihydro-6-methyl-4-(4-nitro)phenyl-3-(N-(3-(4,4-diphenylpiperidin-1-yl)propyl))carboxamidopyridine hydrochloride]
- Ki (α2C receptor; [2]): 0.123 µM
- Ki [1, 3]: 0.407 µM
- Ki (L-type calcium channel; [4]): 32.4 µM

SMILES: COC(=O)C1=C(C)NC(C)=C(C(=O)NCCCN2CCC(c3ccccc3)(c3ccccc3)CC2)C1c1ccc(Br)cc1 (stereo not shown) [Example 15, 4-(4-Bromophenyl)-1,4-dihydro-3-methoxycarbonyl-2,6-dimethyl-5-(N-(3-(4,4-diphenylpiperidin-1-yl)propyl)carboxamido)pyridine]
- Ki (α2C receptor; pKi alpha-2 2c): 1.12 µM
- Ki ([1]; pKi alpha-1 1a): 0.417 µM
- Ki (L-type calcium channel; pKi Ca): 7.24 µM

SMILES: CC1=C(C(N)=O)C(c2cccc([N+](=O)[O-])c2)C(C(=O)NCCCN2CCC(c3ccccc3)(c3ccccc3)CC2)=C(C)N1 (stereo not shown) [Example 61, 5-Carboxamido-1,4-dihydro-2,6-dimethyl-4-(3-nitrophenyl)-3-{N-[3-(4,4-diphenylpiperidin-1-yl)propyl]}carboxamidopyridine]
- Ki (α2C receptor; [2]): 0.479 µM
- Ki [1, 3]: 0.851 µM
- Ki (L-type calcium channel; [4]): 10.2 µM

SMILES: COC(=O)C1=C(C)NC(C)=C(C(=O)NCCN2CCC(c3ccccc3)(c3ccccc3)CC2)C1c1ccc([N+](=O)[O-])cc1 (stereo not shown) [Example 52, 1,4-Dihydro-3-methoxycarbonyl-2,6-dimethyl-4-(4-nitrophenyl)-5-{N-[2-(4,4-diphenylpiperidin-1-yl)ethyl]}carboxamidopyridine hydrochloride hemihydrate]
- Ki (α2C receptor; pKi alpha-2 2c): 0.263 µM
- Ki ([1]; pKi alpha-1 1a): 1.15 µM
- Ki (L-type calcium channel; pKi Ca): 5.13 µM

SMILES: CC1=C(C(=O)NCCCN2CCC(c3ccccc3)(c3ccccc3)CC2)C(c2ccc([N+](=O)[O-])cc2)C(C(=O)OCCC#N)=C(C)N1 (stereo not shown) [Example 160]
- Ki (α2C receptor; [5]): 0.155 µM
- Ki [1, 6]: 0.251 µM
- Ki (L-type calcium channel; [7]): 15.5 µM

SMILES: CCNC(=O)C1=C(COCCN=[N+]=[N-])NC(CC)=C(C(=O)NCCCN2CCC(c3ccccc3)(c3ccccc3)CC2)C1c1ccc([N+](=O)[O-])cc1 (stereo not shown) [Example 147, 2-((2-Azidoethyl)oxy)methyl-6-ethyl-3-(N-ethyl)carboxamido-1,4-dihydro-4-(4-nitro)phenyl-5-(N-(3-(4,4-diphenylpiperidin-1-yl-)propyl))carboxamidopyridine]
- Ki (α2C receptor; [8]): 0.251 µM
- Ki [1, 6]: 0.372 µM

SMILES: CCC1=C(C(=O)OCCC#N)C(c2ccc([N+](=O)[O-])cc2)C(C(=O)NCCCN2CCC(c3ccccc3)(c3ccccc3)CC2)=C(COC)N1 (stereo not shown) [Example 135]
- Ki (α2C receptor; [5]): 0.339 µM
- Ki ([1]; [3H]prazosin, cloned human α1A receptor, LM(tk−) cell membranes, read-out: pKi alpha-1 1a (converted)): 0.501 µM

SMILES: CCC1=C(C(=O)NCCCN2CCC(c3ccccc3)(c3ccccc3)CC2)C(c2ccc([N+](=O)[O-])cc2)C(C(=O)OC(C)(C)C)=C(COCCN=[N+]=[N-])N1 (stereo not shown) [Example 139]
- Ki (α2C receptor; [8]): 0.309 µM
- Ki [1, 6]: 0.479 µM

SMILES: CCC1=C(C(=O)NCCCN2CCC(c3ccccc3)(c3ccccc3)CC2)C(c2ccc([N+](=O)[O-])cc2)C(C(=O)NC)=C(COCCN=[N+]=[N-])N1 (stereo not shown) [Example 151, 2-((2-Azidoethyl)oxy)methyl-6-ethyl-1,4-dihydro-3-(N-methyl)carboxamido-4-(4-nitro)phenyl-5-(N-(3-(4,4-diphenylpiperidin-1-yl)propyl))carboxamidopyridine]
- Ki (α2C receptor; [8]): 0.209 µM
- Ki [1, 6]: 0.631 µM

SMILES: CCC1=C(C(N)=O)C(c2ccc([N+](=O)[O-])cc2)C(C(=O)NCCCN2CCC(c3ccccc3)(c3ccccc3)CC2)=C(CC)N1 (stereo not shown) [Example 42, 5-carboxamido-2,6-diethyl-1,4-dihydro-4-(4-nitrophenyl)-3-{N-[3-(4,4-diphenylpiperidin-1-yl)propyl]}carboxamidopyridine]
- Ki (α2C receptor; pKi alpha-2 2c, [3H]rauwolscine, LM(tk-) cell line L-α2C, SEM and n in lines below): 0.17 µM
- Ki [1, 3]: 0.447 µM

SMILES: CCC1=C(C(=O)NCCCN2CCC(c3ccccc3)(c3ccccc3)CC2)C(c2ccc([N+](=O)[O-])cc2)C(C(N)=O)=C(COCCN=[N+]=[N-])N1 (stereo not shown) [Example 149, 2-((2-Azidoethyl)oxy)methyl-3-carboxamido-6-ethyl-1,4-dihydro-4-(4-nitro) phenyl-5-(N-(3-(4,4-diphenylpiperidin-1-yl)propyl))carboxamidopyridine]
- Ki (α2C receptor; [8]): 0.257 µM
- Ki [1, 6]: 0.324 µM

SMILES: COC(=O)C1=C(C)NC(C)=C(C(=O)NCCCN2CCC(c3ccccc3)(c3ccccc3)CC2)C1c1cccnc1 (stereo not shown) [Example 14, 1,4-Dihydro-3-methoxycarbonyl-2.6-dimethyl-5-(N-(3-(4,4-diphenylpiperidin-1-yl)propyl)carboxamido)-4-(3-pyridyl)pyridine]
- Ki (α2C receptor; [2]): 1.1 µM
- Ki [1, 3]: 4.07 µM

SMILES: CCC1=C(C(=O)NC)C(c2ccc([N+](=O)[O-])cc2)C(C(=O)NCCCN2CCC(c3ccccc3)(c3ccccc3)CC2)=C(CC)N1 (stereo not shown) [Example 128, 2,6-Diethyl-1,4-dihydro-5-(N-methyl)carboxamido-4-(4-nitrophenyl)-3-{N-[3-(4,4-diphenylpiperidin-1-yl)propyl]}carboxamidopyridine]
- Ki (α2C receptor; [5]): 0.219 µM
- Ki [1, 6]: 0.977 µM

SMILES: CCC1=C(C(N)=O)C(c2ccc([N+](=O)[O-])cc2)C(C(=O)NCCCN2CCC(c3ccccc3)(c3ccccc3)CC2)=C(C)N1 (stereo not shown) [Example 41, 3-Carboxamido-2-ethyl-1,4-dihydro-6-methyl-4-(4-nitrophenyl)-3-{N-[3-(4,4-diphenylpiperidin-1-yl)propyl]}carboxamidopyridine]
- Ki (α2C receptor; [2]): 0.437 µM
- Ki [1, 3]: 0.501 µM

SMILES: CCC1=C(C(=O)OCCC#N)C(c2ccc([N+](=O)[O-])cc2)C(C(=O)NCCCN2CCC(c3ccccc3)(c3ccccc3)CC2)=C(COCCN=[N+]=[N-])N1 (stereo not shown) [Example 141]
- Ki (α2C receptor; [8]): 0.355 µM
- Ki [1, 6]: 0.0501 µM

SMILES: CCC1=C(C(N)=O)C(c2ccc(S(C)(=O)=O)cc2)C(C(=O)NCCCN2CCC(c3ccccc3)(c3ccccc3)CC2)=C(CC)N1 (stereo not shown) [Example 116, 5-Carboxamido-2,6-diethyl-1,4-dihydro-4-(4-methanesulfonylphenyl)-3-(N-(3-(4,4-diphenylpiperidin-1-yl)propyl)carboxamido)-pyridine]
- Ki (α2C receptor; [8]): 0.741 µM
- Ki [1, 6]: 0.186 µM
